From US11731986B2 (Sanford Burnham Prebys Medical Discovery Institute, priority 2017, dated 2023)
pIC50: −log10 of the molar value.

Molecular target: T1, human LMPTP-A (Homo sapiens, UniProt P24666)
T1 sequence (P24666 1-158): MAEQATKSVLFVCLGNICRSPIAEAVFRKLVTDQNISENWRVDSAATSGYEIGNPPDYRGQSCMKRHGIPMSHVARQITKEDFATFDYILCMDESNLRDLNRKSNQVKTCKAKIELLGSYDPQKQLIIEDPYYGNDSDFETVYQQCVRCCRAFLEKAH
Test: Enzyme Assay of Inhibition of LMPTP-A (phosphatase assay, OMFP or pNPP substrate)
Assay type: biochemical
Conditions: Bis-Tris pH 6.0, 37° C.
In short: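 Buffer 50 mM Bis-Tris pH 6.0, 1 mM DTT, 0.01% Triton X-100, 37 °C; OMFP read continuously (485/525 nm) or pNPP stopped with NaOH, 405 nm. IC50 from concentration vs % activity. Selectivity: 40 μM compound with 0.4 mM OMFP or 5 mM pNPP; reversibility: 50 nM enzyme, 10 μM compound, 5 min, 100× dilution.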

SMILES	pIC50
CCN(CC)C(=O)c1ccc(-c2cc(Nc3ccc(CN(C)C)cc3)c3cnccc3n2)cc1 [4-(4-(4-((Dimethylamino)methyl)phenylamino)-1,6-naphthyridin-2-yl)-N,N-diethylbenzamide]	4.70 to 6.00
CN1CCC(NC(=O)c2cc3cc(-c4cc(NCCCN5CCCCC5)c5cnccc5n4)ccc3n2C)CC1 [1-methyl-N-(1-methylpiperidin-4-yl)-5-(4-((3-(piperidin-1-yl)propyl)amino)-1,6-naphthyridin-2-yl)-1H-indole-2-carboxamide]	≥ 6.00
CCN(CC)C(=O)c1nc2ccc(-c3cc(NCCCN4CCCCC4)c4cnccc4n3)cc2o1 [N,N-Diethyl-6-(4-(3-(piperidin-1-yl)propylamino)-1,6-naphthyridin-2-yl)benzo[d]oxazole-2-carboxamide]	4.70 to 6.00
CN1CCC(CCNC(=O)/C=C/c2ccc(-c3cc(NCCCN4CCCCC4)c4cnccc4n3)o2)CC1 [(E)-N-(2-(1-Methylpiperidin-4-yl)ethyl)-3-(5-(4-((3-(piperidin-1-yl)propyl)amino)-1,6-naphthyridin-2-yl)furan-2-yl)acrylamide]	4.70 to 6.00
CN1CCC(CCNC(=O)/C=C/c2ccc(-c3cc(NCCCN4CCCCC4)c4cnccc4n3)cc2)CC1 [(E)-N-(2-(1-Methylpiperidin-4-yl)ethyl)-3-(4-(4-(3-(piperidin-1-yl)propylamino)-1,6-naphthyridin-2-yl)phenyl)acrylamide]	≥ 6.00
O=C(COCc1ccc(-c2cc(NCCCN3CCCCC3)c3cnccc3n2)cc1)NCCCN1CCCCC1 [N-(3-(piperidin-1-yl)propyl)-2-((4-(4-((3-(piperidin-1-yl)propyl)amino)-1,6-naphthyridin-2-yl)benzyl)oxy)acetamide]	4.70 to 6.00
CCN1CCC(CNC(=O)COCc2ccc(-c3cc(NCCCN4CCCCC4)c4cnccc4n3)cc2)CC1 [N-((1-ethylpiperidin-4-yl)methyl)-2-(4-(4-(3-(piperidin-1-yl)propylamino)-1,6-naphthyridin-2-yl)benzyloxy)acetamide]	4.70 to 6.00
CN(C)CCNC(=O)/C=C/c1ccc(-c2cc(NCCCN3CCCCC3)c3cnccc3n2)cc1 [(E)-N-(2-(Dimethylamino)ethyl)-3-(4-(4-(3-(piperidin-1-yl)propylamino)-1,6-naphthyridin-2-yl)phenyl)acrylamide]	≥ 6.00
CCN(CC)C(=O)/C=C/c1ccc(-c2cc(Nc3ccc(CN4CCCC4)cc3)c3cnccc3n2)cc1 [(E)-N,N-Diethyl-3-(4-(4-((4-(pyrrolidin-1-ylmethyl)phenyl)amino)-1,6-naphthyridin-2-yl)phenyl)acrylamide]	4.70 to 6.00
CCN(CC)C(=O)c1ccc(-c2cc(NC3CCN(C)C3)c3cnccc3n2)cc1 (stereo not drawn) [N,N-Diethyl-4-(4-(1-methylpyrrolidin-3-ylamino)-1,6-naphthyridin-2-yl)benzamide]	4.70 to 6.00
O=C(NCCc1ccncc1)c1cc2ccc(-c3cc(NCCCN4CCCCC4)c4cnccc4n3)cc2[nH]1	≥ 6.00
CN1CCCN(CCNC(=O)COCc2ccc(-c3cc(NCCCN4CCCCC4)c4cnccc4n3)cc2)CC1 [N-(2-(4-methyl-1,4-diazepan-1-yl)ethyl)-2-(4-(4-(3-(piperidin-1-yl)propylamino)-1,6-naphthyridin-2-yl)benzyloxy)acetamide]	≥ 6.00
CN1CCC(N/C(=N\O)c2ccc(-c3cc(NCCCN4CCCCC4)c4cncc(Cl)c4n3)cc2)CC1 [(Z)-4-(8-chloro-4-((3-(piperidin-1-yl)propyl)amino)-1,6-naphthyridin-2-yl)-N′-hydroxy-N-(1-methylpiperidin-4-yl)benzimidamide]	≤ 4.70
CN(C)CCNC(=O)c1nc2cc(-c3cc(Nc4ccc(CN5CCCC5)cc4)c4cnccc4n3)ccc2[nH]1 [N-(2-(dimethylamino)ethyl)-5-(4-((4-(pyrrolidin-1-ylmethyl)phenyl)amino)-1,6-naphthyridin-2-yl)-1H-benzo[d]imidazole-2-carboxamide]	≥ 6.00
CCN(CC)C(=O)c1ccc(-c2cc(NCCCN3CCCCC3)c3cnccc3n2)c(C#N)c1 [3-cyano-N,N-diethyl-4-(4-((3-(piperidin-1-yl)propyl)amino)-1,6-naphthyridin-2-yl)benzamide]	4.70 to 6.00
CCN(CC)C(=O)c1ccc(-c2cc(NCCN3CCN(S(C)(=O)=O)CC3)c3cnccc3n2)cc1 [N,N-diethyl-4-(4-(2-(4-(methylsulfonyl)piperazin-1-yl)ethylamino)-1,6-naphthyridin-2-yl)benzamide]	4.70 to 6.00
NC1CCN(C(=O)CCc2ccc(-c3cc(NCCCN4CCCCC4)c4cnccc4n3)cc2)CC1	≥ 6.00
O=C(NCCCN1CCCCC1)c1cc2ccc(-c3cc(NCCCN4CCCCC4)c4cnccc4n3)cc2s1 [N-(3-(piperidin-1-yl)propyl)-6-(4-(3-(piperidin-1-yl)propylamino)-1,6-naphthyridin-2-yl)benzo[b]thiophene-2-carboxamide]	≥ 6.00
CCN(CC)C(=O)c1ccc(-c2cc(NCCCN3CCN(C)CC3)c3cnccc3n2)cc1 [N,N-diethyl-4-(4-(3-(4-methylpiperazin-1-yl)propylamino)-1,6-naphthyridin-2-yl)benzamide]	4.70 to 6.00
O=C(NCCCN1CCCCC1)c1cc2cc(-c3cc(NCCCN4CCCCC4)c4cnccc4n3)ccc2s1 [N-(3-(piperidin-1-yl)propyl)-5-(4-(3-(piperidin-1-yl)propylamino)-1,6-naphthyridin-2-yl)benzo[b]thiophene-2-carboxamide]	4.70 to 6.00
O=C(NCCc1ccncc1)c1nc2cc(-c3cc(NCCCN4CCCCC4)c4cnccc4n3)ccc2[nH]1 [5-(4-((3-(piperidin-1-yl)propyl)amino)-1,6-naphthyridin-2-yl)-N-(2-(pyridin-4-yl)ethyl)-1H-benzo[d]imidazole-2-carboxamide]	≥ 6.00
CN1CCC(NC(=O)c2cc3cc(-c4cc(N(C)CCCN5CCCCC5)c5cnccc5n4)ccc3n2C)CC1 [1-methyl-5-(4-(methyl(3-(piperidin-1-yl)propyl)amino)-1,6-naphthyridin-2-yl)-N-(1-methylpiperidin-4-yl)-1H-indole-2-carboxamide]	4.70 to 6.00
CN1CCC(NC(=O)COc2ccc(-c3cc(NCCCN4CCCCC4)c4cnccc4n3)cc2)CC1 [N-(1-methylpiperidin-4-yl)-2-(4-(4-(3-(piperidin-1-yl)propylamino)-1,6-naphthyridin-2-yl)phenoxy)acetamide]	≤ 4.70
CN1CCC(NC(=O)/C=C/c2ccc(-c3cc(NCCCN4CCCCC4)c4cnccc4n3)o2)CC1 [(E)-N-(1-Methylpiperidin-4-yl)-3-(5-(4-((3-(piperidin-1-yl)propyl)amino)-1,6-naphthyridin-2-yl)furan-2-yl)acrylamide]	≤ 4.70
O=C(NC1CCNCC1)c1cc2ccc(-c3cc(NCCCN4CCCCC4)c4cnccc4n3)cc2s1 [6-(4-(3-(piperidin-1-yl)propylamino)-1,6-naphthyridin-2-yl)-N-(piperidin-4-yl)benzo[b]thiophene-2-carboxamide]	≥ 6.00
CN1CCC(NC(=O)c2ccc(-c3cc(NCCCN4CCCCC4)c4cnccc4n3)c(C#N)c2)CC1 [3-cyano-N-(1-methylpiperidin-4-yl)-4-(4-((3-(piperidin-1-yl)propyl)amino)-1,6-naphthyridin-2-yl)benzamide]	4.70 to 6.00
CCN(CC)C(=O)c1ccc(-c2cc(NCCCN3CCCCC3)c3ncccc3n2)cc1 [N,N-diethyl-4-(4-(3-(piperidin-1-yl)propylamino)-1,5-naphthyridin-2-yl)benzamide]	≤ 4.70
